{
  "source": "ChEMBL document CHEMBL1201861",
  "about": "“Genomics of Drug Sensitity in Cancer screening data, Wellcome Trust Sanger Institute”",
  "key": {"COR-L279": {"system": "COR-L279", "experiment": "SANGER: Inhibition of human COR-L279 cell growth in a cell viability assay.", "assay_type": "functional, cell-based", "settings": "Homo sapiens, COR-L279"}, "D-542MG": {"system": "D-542MG", "experiment": "cells", "assay_type": "functional, cell-based, Homo sapiens", "settings": "Homo sapiens, D-542MG", "description": "SANGER: Inhibition of human D-542MG cell growth in a cell viability assay."}, "HCC1599": {"system": "HCC1599", "experiment": "cells", "assay_type": "functional, cell-based, Homo sapiens", "settings": "Homo sapiens, HCC1599", "description": "SANGER: Inhibition of human HCC1599 cell growth in a cell viability assay."}, "JIYOYE": {"system": "JIYOYE", "experiment": "cells", "assay_type": "functional, cell-based, Homo sapiens", "settings": "Homo sapiens, JIYOYE", "description": "SANGER: Inhibition of human JiyoyeP-2003 cell growth in a cell viability assay."}, "MONO-MAC-6": {"system": "MONO-MAC-6", "experiment": "cells", "assay_type": "functional, cell-based, Homo sapiens", "settings": "Homo sapiens, MONO-MAC-6", "description": "SANGER: Inhibition of human MONO-MAC-6 cell growth in a cell viability assay."}, "NCI-H1436": {"system": "NCI-H1436", "experiment": "cells", "assay_type": "functional, cell-based, Homo sapiens", "settings": "Homo sapiens, NCI-H1436", "description": "SANGER: Inhibition of human NCI-H1436 cell growth in a cell viability assay."}, "OPM-2": {"system": "OPM-2", "experiment": "cells", "assay_type": "functional, cell-based, Homo sapiens", "settings": "Homo sapiens, OPM-2", "description": "SANGER: Inhibition of human OPM-2 cell growth in a cell viability assay."}, "Raji": {"system": "Raji", "experiment": "cells", "assay_type": "functional, cell-based, Homo sapiens", "settings": "Homo sapiens, Raji", "description": "SANGER: Inhibition of human Raji cell growth in a cell viability assay."}, "SCC-3": {"system": "SCC-3", "experiment": "cells", "assay_type": "functional, cell-based, Homo sapiens", "settings": "Homo sapiens, SCC-3", "description": "SANGER: Inhibition of human SCC-3 cell growth in a cell viability assay."}, "SU-DHL-1": {"system": "SU-DHL-1", "experiment": "SANGER: Inhibition of human SU-DHL-1 cell growth in a cell viability assay.", "assay_type": "functional, cell-based", "settings": "Homo sapiens, SU-DHL-1"}, "THP-1": {"system": "THP-1", "experiment": "cells", "assay_type": "functional, cell-based, Homo sapiens", "settings": "Homo sapiens, THP-1", "description": "SANGER: Inhibition of human THP-1 cell growth in a cell viability assay."}, "WSU-NHL": {"system": "WSU-NHL", "experiment": "cells", "assay_type": "functional, cell-based, Homo sapiens", "settings": "Homo sapiens, WSU-NHL", "description": "SANGER: Inhibition of human WSU-NHL cell growth in a cell viability assay."}, "CESS": {"system": "CESS", "experiment": "SANGER: Inhibition of human CESS cell growth in a cell viability assay.", "assay_type": "functional, cell-based", "settings": "Homo sapiens, CESS"}},
  "data": [
    {"smiles": "COc1cc2ncn(-c3cc(OCc4ccccc4S(C)(=O)=O)c(C#N)s3)c2cc1OC", "note": "[GSK-319347A]", "values": [
      {"measurement": "IC50", "setting": "COR-L279", "result": "> 5", "unit": "µM"},
      {"measurement": "IC50", "setting": "D-542MG", "result": "> 5", "unit": "µM"},
      {"measurement": "IC50", "setting": "HCC1599", "result": "> 5", "unit": "µM"},
      {"measurement": "IC50", "setting": "JIYOYE", "result": "> 5", "unit": "µM"},
      {"measurement": "IC50", "setting": "MONO-MAC-6", "result": "> 5", "unit": "µM"},
      {"measurement": "IC50", "setting": "NCI-H1436", "result": "> 5", "unit": "µM"},
      {"measurement": "IC50", "setting": "OPM-2", "result": "> 5", "unit": "µM"},
      {"measurement": "IC50", "setting": "Raji", "result": "> 5", "unit": "µM"},
      {"measurement": "IC50", "setting": "SCC-3", "result": "> 5", "unit": "µM"},
      {"measurement": "IC50", "setting": "SU-DHL-1", "result": "> 5", "unit": "µM"},
      {"measurement": "IC50", "setting": "THP-1", "result": "> 5", "unit": "µM"},
      {"measurement": "IC50", "setting": "WSU-NHL", "result": "> 5", "unit": "µM"},
      {"measurement": "IC50", "setting": "CESS", "result": "> 5", "unit": "µM"}
    ]},
    {"smiles": "CC[C@H](CO)Nc1nc(NCc2ccccc2)c2ncn(C(C)C)c2n1", "note": "[SELICICLIB]", "values": [
      {"measurement": "IC50", "setting": "COR-L279", "result": 12.3, "unit": "µM"},
      {"measurement": "IC50", "setting": "D-542MG", "result": "> 16", "unit": "µM"},
      {"measurement": "IC50", "setting": "HCC1599", "result": 14.6, "unit": "µM"},
      {"measurement": "IC50", "setting": "JIYOYE", "result": 8.5, "unit": "µM"},
      {"measurement": "IC50", "setting": "MONO-MAC-6", "result": "> 16", "unit": "µM"},
      {"measurement": "IC50", "setting": "NCI-H1436", "result": "> 16", "unit": "µM"},
      {"measurement": "IC50", "setting": "OPM-2", "result": "> 16", "unit": "µM"},
      {"measurement": "IC50", "setting": "Raji", "result": 13.8, "unit": "µM"},
      {"measurement": "IC50", "setting": "SCC-3", "result": 14.3, "unit": "µM"},
      {"measurement": "IC50", "setting": "SU-DHL-1", "result": "> 16", "unit": "µM"},
      {"measurement": "IC50", "setting": "THP-1", "result": "> 16", "unit": "µM"},
      {"measurement": "IC50", "setting": "WSU-NHL", "result": "> 16", "unit": "µM"},
      {"measurement": "IC50", "setting": "CESS", "result": "> 16", "unit": "µM"}
    ]},
    {"smiles": "CC(=O)O[C@H]1C(=O)[C@@]2(C)[C@H]([C@H](OC(=O)c3ccccc3)[C@]3(O)C[C@H](OC(=O)[C@H](O)[C@@H](NC(=O)c4ccccc4)c4ccccc4)C(C)=C1C3(C)C)[C@]1(OC(C)=O)CO[C@@H]1C[C@@H]2O", "note": "[PACLITAXEL]", "values": [
      {"measurement": "IC50", "setting": "COR-L279", "result": 0.00999, "unit": "µM"},
      {"measurement": "IC50", "setting": "HCC1599", "result": 0.0202, "unit": "µM"},
      {"measurement": "IC50", "setting": "JIYOYE", "result": 0.0218, "unit": "µM"},
      {"measurement": "IC50", "setting": "MONO-MAC-6", "result": 0.0302, "unit": "µM"},
      {"measurement": "IC50", "setting": "NCI-H1436", "result": 0.0123, "unit": "µM"},
      {"measurement": "IC50", "setting": "OPM-2", "result": 0.0367, "unit": "µM"},
      {"measurement": "IC50", "setting": "Raji", "result": "> 0.102", "unit": "µM"},
      {"measurement": "IC50", "setting": "SCC-3", "result": 0.012, "unit": "µM"},
      {"measurement": "IC50", "setting": "SU-DHL-1", "result": "> 0.102", "unit": "µM"},
      {"measurement": "IC50", "setting": "THP-1", "result": "> 0.102", "unit": "µM"},
      {"measurement": "IC50", "setting": "WSU-NHL", "result": "> 0.102", "unit": "µM"},
      {"measurement": "IC50", "setting": "CESS", "result": 0.00737, "unit": "µM"}
    ]}
  ]
}
